Where a SMILES comes first, the peptide text is derived from it. [ ]: non-standard residue; d: D form.
These compounds were tested against T1, PSD-95-PDZ2 (Homo sapiens, UniProt P78352) (assay: Fluorescence polarization (FP) competition assay against cyclic nNOS TAMRA probe). Settings: FP competition, cyclic nNOS TAMRA probe; mean of triplicates; N.B. = not binding; read-out: Ki.
T1 construct: 7xHis (N); made in house; host or cells: Escherichia coli B21 pLys (for the mutants, 'as previously described')
T1 sequence (P78352 160-246 limits assumed): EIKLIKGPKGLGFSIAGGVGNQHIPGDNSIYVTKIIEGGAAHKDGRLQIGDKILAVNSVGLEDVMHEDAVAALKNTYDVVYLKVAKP
Type: binding

Ki [µM]	Structure (SMILES)
6.19	CC[C@H](C)[C@@H]1NC(=O)[C@H]([C@@H](C)O)NC(=O)[C@H](CCCCN)NC(=O)[C@@H]2CCCN2C(=O)[C@H]([C@@H](C)O)NC(=O)CNC(=O)[C@H](CC(=O)O)NC(=O)CNC(=O)[C@H]([C@@H](C)O)NC(=O)[C@H](Cc2ccccc2)NC(=O)[C@H]([C@@H](C)O)NC(=O)[C@H]([C@@H](C)O)NC(=O)[C@H](CCC(=O)O)NC(=O)[C@H](CC(C)C)NC(=O)[C@H](CCC(=O)O)NC(=O)[C@H]([C@@H](C)O)NC(=O)[C@H](CCC(N)=O)NC(=O)CNC(=O)[C@H]2CCCN2C(=O)[C@H](CCC(N)=O)NC(=O)[C@H]([C@@H](C)O)NC(=O)[C@H](C(C)C)NC(=O)[C@H](CCCNC(=N)N)NC1=O [compound 23] (cyclo(TELETTFTGDGTPKTIRVTQ[dP]GQ))
0.99	CC[C@H](C)[C@@H]1NC(=O)[C@H]([C@@H](C)O)NC(=O)[C@H](CCCCN)NC(=O)[C@@H]2CCCN2C(=O)[C@H]([C@@H](C)O)NC(=O)CNC(=O)[C@H](CCCNC(=N)N)NC(=O)CNC(=O)[C@H]([C@@H](C)O)NC(=O)[C@H](Cc2ccccc2)NC(=O)[C@H]([C@@H](C)O)NC(=O)[C@H]([C@@H](C)O)NC(=O)[C@H](CCC(=O)O)NC(=O)[C@H](CC(C)C)NC(=O)[C@H](Cc2c[nH]cn2)NC(=O)[C@H]([C@@H](C)O)NC(=O)[C@H](CCC(N)=O)NC(=O)CNC(=O)[C@H]2CCCN2C(=O)[C@H](CCC(N)=O)NC(=O)[C@H]([C@@H](C)O)NC(=O)[C@H](C(C)C)NC(=O)[C@H](CCCNC(=N)N)NC1=O [compound 34] (cyclo(THLETTFTGRGTPKTIRVTQ[dP]GQ))

Same assay, conditions: FP inhibition constant normalized to WT value

Structure (SMILES)	Relative Ki (Ki mut/Ki WT)
CC[C@H](C)[C@@H]1NC(=O)[C@H]([C@@H](C)O)NC(=O)[C@H](CCCCN)NC(=O)[C@@H]2CCCN2C(=O)[C@H]([C@@H](C)O)NC(=O)CNC(=O)[C@H](CC(=O)O)NC(=O)CNC(=O)[C@H]([C@@H](C)O)NC(=O)[C@H](Cc2ccccc2)NC(=O)[C@H]([C@@H](C)O)NC(=O)[C@H]([C@@H](C)O)NC(=O)[C@H](CCC(=O)O)NC(=O)[C@H](CC(C)C)NC(=O)[C@H](CCC(=O)O)NC(=O)[C@H]([C@@H](C)O)NC(=O)[C@H](CCC(N)=O)NC(=O)CNC(=O)[C@H]2CCCN2C(=O)[C@H](CCC(N)=O)NC(=O)[C@H]([C@@H](C)O)NC(=O)[C@H](C(C)C)NC(=O)[C@H](CCCNC(=N)N)NC1=O [compound 23] (cyclo(TELETTFTGDGTPKTIRVTQ[dP]GQ))	4.13
CC[C@H](C)[C@@H]1NC(=O)[C@H]([C@@H](C)O)NC(=O)[C@H](CCCCN)NC(=O)[C@@H]2CCCN2C(=O)[C@H]([C@@H](C)O)NC(=O)CNC(=O)[C@H](CC(=O)O)NC(=O)CNC(=O)[C@H]([C@@H](C)O)NC(=O)[C@H](Cc2ccccc2)NC(=O)[C@H]([C@@H](C)O)NC(=O)[C@H]([C@@H](C)O)NC(=O)[C@H](CCC(=O)O)NC(=O)[C@H](CC(C)C)NC(=O)[C@H](Cc2ccc(O)cc2)NC(=O)[C@H]([C@@H](C)O)NC(=O)[C@H](CCC(N)=O)NC(=O)CNC(=O)[C@H]2CCCN2C(=O)[C@H](CCC(N)=O)NC(=O)[C@H]([C@@H](C)O)NC(=O)[C@H](C(C)C)NC(=O)[C@H](CCCNC(=N)N)NC1=O [compound 26] (cyclo(TYLETTFTGDGTPKTIRVTQ[dP]GQ))	0.79
CC[C@H](C)[C@@H]1NC(=O)[C@H]([C@@H](C)O)NC(=O)[C@H](CCCCN)NC(=O)[C@@H]2CCCN2C(=O)[C@H]([C@@H](C)O)NC(=O)CNC(=O)[C@H](CC(=O)O)NC(=O)CNC(=O)[C@H]([C@@H](C)O)NC(=O)[C@H](Cc2ccccc2)NC(=O)[C@H]([C@@H](C)O)NC(=O)[C@H]([C@@H](C)O)NC(=O)[C@H](CCC(=O)O)NC(=O)[C@H](CC(C)C)NC(=O)[C@H](Cc2ccccc2)NC(=O)[C@H]([C@@H](C)O)NC(=O)[C@H](CCC(N)=O)NC(=O)CNC(=O)[C@H]2CCCN2C(=O)[C@H](CCC(N)=O)NC(=O)[C@H]([C@@H](C)O)NC(=O)[C@H](C(C)C)NC(=O)[C@H](CCCNC(=N)N)NC1=O [compound 27] (cyclo(TFLETTFTGDGTPKTIRVTQ[dP]GQ))	0.79
CC[C@H](C)[C@@H]1NC(=O)[C@H]([C@@H](C)O)NC(=O)[C@H](CCCCN)NC(=O)[C@@H]2CCCN2C(=O)[C@H]([C@@H](C)O)NC(=O)CNC(=O)[C@@H]2CCCN2C(=O)CNC(=O)[C@H]([C@@H](C)O)NC(=O)[C@H](Cc2ccccc2)NC(=O)[C@H]([C@@H](C)O)NC(=O)[C@H]([C@@H](C)O)NC(=O)[C@H](CCC(=O)O)NC(=O)[C@H](CC(C)C)NC(=O)[C@H](Cc2c[nH]cn2)NC(=O)[C@H]([C@@H](C)O)NC(=O)[C@H](CCC(N)=O)NC(=O)CNC(=O)[C@H]2CCCN2C(=O)[C@H](CCC(N)=O)NC(=O)[C@H]([C@@H](C)O)NC(=O)[C@H](C(C)C)NC(=O)[C@H](CCCNC(=N)N)NC1=O [compound 29] (cyclo(THLETTFTGPGTPKTIRVTQ[dP]GQ))	1.60
CC[C@H](C)[C@@H]1NC(=O)[C@H]([C@@H](C)O)NC(=O)[C@H](CCCCN)NC(=O)[C@@H]2CCCN2C(=O)[C@H]([C@@H](C)O)NC(=O)[C@H](CCCNC(=N)N)NC(=O)[C@H](CC(=O)O)NC(=O)CNC(=O)[C@H]([C@@H](C)O)NC(=O)[C@H](Cc2ccccc2)NC(=O)[C@H]([C@@H](C)O)NC(=O)[C@H]([C@@H](C)O)NC(=O)[C@H](CCC(=O)O)NC(=O)[C@H](CC(C)C)NC(=O)[C@H](Cc2c[nH]cn2)NC(=O)[C@H]([C@@H](C)O)NC(=O)[C@H](CCC(N)=O)NC(=O)CNC(=O)[C@H]2CCCN2C(=O)[C@H](CCC(N)=O)NC(=O)[C@H]([C@@H](C)O)NC(=O)[C@H](C(C)C)NC(=O)[C@H](CCCNC(=N)N)NC1=O [compound 35] (cyclo(THLETTFTGDRTPKTIRVTQ[dP]GQ))	0.50

Other lines, results leading:

Relative Ki (Ki mut/Ki WT)	Structure (SMILES)
3.00	CC[C@H](C)[C@@H]1NC(=O)[C@H]([C@@H](C)O)NC(=O)[C@H](CCCCN)NC(=O)[C@@H]2CCCN2C(=O)[C@H]([C@@H](C)O)NC(=O)CNC(=O)[C@H](CC(=O)O)NC(=O)CNC(=O)[C@H]([C@@H](C)O)NC(=O)[C@H](Cc2ccccc2)NC(=O)[C@H]([C@@H](C)O)NC(=O)[C@H]([C@@H](C)O)NC(=O)[C@H](CCC(=O)O)NC(=O)[C@H](CC(C)C)NC(=O)[C@H](Cc2c[nH]cn2)NC(=O)CNC(=O)[C@H](CCC(N)=O)NC(=O)CNC(=O)[C@H]2CCCN2C(=O)[C@H](CCC(N)=O)NC(=O)[C@H]([C@@H](C)O)NC(=O)[C@H](C(C)C)NC(=O)[C@H](CCCNC(=N)N)NC1=O [compound 25] (cyclo(GHLETTFTGDGTPKTIRVTQ[dP]GQ))
1.91	CC[C@H](C)[C@@H]1NC(=O)[C@H]([C@@H](C)O)NC(=O)[C@H](CCCCN)NC(=O)[C@@H]2CCCN2C(=O)[C@H]([C@@H](C)O)NC(=O)CNC(=O)[C@H](CCCCN)NC(=O)CNC(=O)[C@H]([C@@H](C)O)NC(=O)[C@H](Cc2ccccc2)NC(=O)[C@H]([C@@H](C)O)NC(=O)[C@H]([C@@H](C)O)NC(=O)[C@H](CCC(=O)O)NC(=O)[C@H](CC(C)C)NC(=O)[C@H](Cc2c[nH]cn2)NC(=O)[C@H]([C@@H](C)O)NC(=O)[C@H](CCC(N)=O)NC(=O)CNC(=O)[C@H]2CCCN2C(=O)[C@H](CCC(N)=O)NC(=O)[C@H]([C@@H](C)O)NC(=O)[C@H](C(C)C)NC(=O)[C@H](CCCNC(=N)N)NC1=O [compound 28] (cyclo(THLETTFTGKGTPKTIRVTQ[dP]GQ))
0.77	CC[C@H](C)[C@@H]1NC(=O)[C@H]([C@@H](C)O)NC(=O)[C@H](CCCCN)NC(=O)[C@@H]2CCCN2C(=O)[C@@H]2CCCN2C(=O)CNC(=O)[C@H](CC(=O)O)NC(=O)CNC(=O)[C@H]([C@@H](C)O)NC(=O)[C@H](Cc2ccccc2)NC(=O)[C@H]([C@@H](C)O)NC(=O)[C@H]([C@@H](C)O)NC(=O)[C@H](CCC(=O)O)NC(=O)[C@H](CC(C)C)NC(=O)[C@H](Cc2c[nH]cn2)NC(=O)[C@H]([C@@H](C)O)NC(=O)[C@H](CCC(N)=O)NC(=O)CNC(=O)[C@H]2CCCN2C(=O)[C@H](CCC(N)=O)NC(=O)[C@H]([C@@H](C)O)NC(=O)[C@H](C(C)C)NC(=O)[C@H](CCCNC(=N)N)NC1=O [compound 31] (cyclo(THLETTFTGDGPPKTIRVTQ[dP]GQ))
0.66	CC[C@H](C)[C@@H]1NC(=O)[C@H]([C@@H](C)O)NC(=O)[C@H](CCCCN)NC(=O)[C@@H]2CCCN2C(=O)[C@H]([C@@H](C)O)NC(=O)CNC(=O)[C@H](CCCNC(=N)N)NC(=O)CNC(=O)[C@H]([C@@H](C)O)NC(=O)[C@H](Cc2ccccc2)NC(=O)[C@H]([C@@H](C)O)NC(=O)[C@H]([C@@H](C)O)NC(=O)[C@H](CCC(=O)O)NC(=O)[C@H](CC(C)C)NC(=O)[C@H](Cc2c[nH]cn2)NC(=O)[C@H]([C@@H](C)O)NC(=O)[C@H](CCC(N)=O)NC(=O)CNC(=O)[C@H]2CCCN2C(=O)[C@H](CCC(N)=O)NC(=O)[C@H]([C@@H](C)O)NC(=O)[C@H](C(C)C)NC(=O)[C@H](CCCNC(=N)N)NC1=O [compound 34] (cyclo(THLETTFTGRGTPKTIRVTQ[dP]GQ))
0.69	CC[C@H](C)[C@@H]1NC(=O)[C@H]([C@@H](C)O)NC(=O)[C@H](CCCCN)NC(=O)[C@@H]2CCCN2C(=O)[C@H](Cc2c[nH]c3ccccc23)NC(=O)CNC(=O)[C@H](CC(=O)O)NC(=O)CNC(=O)[C@H]([C@@H](C)O)NC(=O)[C@H](Cc2ccccc2)NC(=O)[C@H]([C@@H](C)O)NC(=O)[C@H]([C@@H](C)O)NC(=O)[C@H](CCC(=O)O)NC(=O)[C@H](CC(C)C)NC(=O)[C@H](Cc2c[nH]cn2)NC(=O)[C@H]([C@@H](C)O)NC(=O)[C@H](CCC(N)=O)NC(=O)CNC(=O)[C@H]2CCCN2C(=O)[C@H](CCC(N)=O)NC(=O)[C@H]([C@@H](C)O)NC(=O)[C@H](C(C)C)NC(=O)[C@H](CCCNC(=N)N)NC1=O [compound 36] (cyclo(THLETTFTGDGWPKTIRVTQ[dP]GQ))
0.91	CC[C@H](C)[C@@H]1NC(=O)[C@H]([C@@H](C)O)NC(=O)[C@H](CCCCN)NC(=O)[C@@H]2CCCN2C(=O)[C@H](CS)NC(=O)CNC(=O)[C@H](CC(=O)O)NC(=O)CNC(=O)[C@H]([C@@H](C)O)NC(=O)[C@H](Cc2ccccc2)NC(=O)[C@H]([C@@H](C)O)NC(=O)[C@H]([C@@H](C)O)NC(=O)[C@H](CCC(=O)O)NC(=O)[C@H](CC(C)C)NC(=O)[C@H](Cc2c[nH]cn2)NC(=O)[C@H]([C@@H](C)O)NC(=O)[C@H](CCC(N)=O)NC(=O)CNC(=O)[C@H]2CCCN2C(=O)[C@H](CCC(N)=O)NC(=O)[C@H]([C@@H](C)O)NC(=O)[C@H](C(C)C)NC(=O)[C@H](CCCNC(=N)N)NC1=O [compound 38] (cyclo(THLETTFTGDGCPKTIRVTQ[dP]GQ))
12.59	CC[C@H](C)[C@@H]1NC(=O)[C@H](CC(N)=O)NC(=O)[C@H](CCCCN)NC(=O)[C@@H]2CCCN2C(=O)[C@H]([C@@H](C)O)NC(=O)CNC(=O)[C@H](CC(=O)O)NC(=O)CNC(=O)[C@H]([C@@H](C)O)NC(=O)[C@H](Cc2ccccc2)NC(=O)[C@H]([C@@H](C)O)NC(=O)[C@H]([C@@H](C)O)NC(=O)[C@H](CCC(=O)O)NC(=O)[C@H](CC(C)C)NC(=O)[C@H](Cc2c[nH]cn2)NC(=O)[C@H]([C@@H](C)O)NC(=O)[C@H](CCC(N)=O)NC(=O)CNC(=O)[C@H]2CCCN2C(=O)[C@H](CCC(N)=O)NC(=O)[C@H]([C@@H](C)O)NC(=O)[C@H](C(C)C)NC(=O)[C@H](CCCNC(=N)N)NC1=O [compound 39] (cyclo(THLETTFTGDGTPKNIRVTQ[dP]GQ))

From US20230220021A1, “CYCLIC PEPTIDE INHIBITORS OF PSD-95 AND USES THEREOF” (University of Copenhagen, priority 2020, published 2023)
